According to ChEMBL document CHEMBL1147828, “Discovery of indole-containing tetracycles as a new scaffold for androgen receptor ligands” (Bioorg Med Chem Lett, 2006):
Active and inactive are the calls of the source. No cut-off for these calls is given here.

The compounds below were run against T1, Androgen receptor (Rattus norvegicus, UniProt P15207) (assay: not given). Conditions: not given.
T1 sequence (P15207 whole entry): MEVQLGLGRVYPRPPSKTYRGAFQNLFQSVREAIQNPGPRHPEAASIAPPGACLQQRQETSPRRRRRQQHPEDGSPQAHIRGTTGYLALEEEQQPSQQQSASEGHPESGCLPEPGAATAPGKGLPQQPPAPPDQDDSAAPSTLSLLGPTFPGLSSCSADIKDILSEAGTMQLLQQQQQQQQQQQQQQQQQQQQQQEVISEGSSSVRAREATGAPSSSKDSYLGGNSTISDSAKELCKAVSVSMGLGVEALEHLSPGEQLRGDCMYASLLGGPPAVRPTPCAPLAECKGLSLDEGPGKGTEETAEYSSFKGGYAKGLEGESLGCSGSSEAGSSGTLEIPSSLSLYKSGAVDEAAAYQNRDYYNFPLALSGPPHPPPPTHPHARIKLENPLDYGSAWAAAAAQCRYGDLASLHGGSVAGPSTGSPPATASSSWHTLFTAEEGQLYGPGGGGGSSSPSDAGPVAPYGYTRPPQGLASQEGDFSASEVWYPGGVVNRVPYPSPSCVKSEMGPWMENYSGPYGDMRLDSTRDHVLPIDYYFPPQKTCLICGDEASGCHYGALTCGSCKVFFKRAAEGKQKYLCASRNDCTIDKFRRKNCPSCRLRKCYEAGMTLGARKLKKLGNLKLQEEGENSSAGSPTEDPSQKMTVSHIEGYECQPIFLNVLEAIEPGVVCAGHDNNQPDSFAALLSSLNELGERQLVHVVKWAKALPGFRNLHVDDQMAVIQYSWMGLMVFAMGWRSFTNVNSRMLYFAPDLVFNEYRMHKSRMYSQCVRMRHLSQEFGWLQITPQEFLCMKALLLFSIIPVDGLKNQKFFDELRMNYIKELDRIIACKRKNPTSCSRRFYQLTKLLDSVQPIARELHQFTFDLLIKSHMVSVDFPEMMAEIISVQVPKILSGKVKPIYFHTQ

Compound	IC50 [nM]
COc1ccc2c(c1)SCc1c-2n(C)c2ccc(O)cc12	3000
Cn1c2c(c3cccc(O)c31)CSc1cc(F)ccc1-2	3800
Cn1c2c(c3cc(O)ccc31)CSc1ncccc1-2	52
Cn1c2c(c3cc(O)ccc31)CCc1cnccc1-2	930
Cn1c2c(c3cc(O)ccc31)CSc1ccc(F)cc1-2	110
Cn1c2c(c3cc(O)ccc31)CCc1ncccc1-2	29
Cn1ccc2c1CCc1c-2n(C)c2ccc(O)cc12	370
Cn1c2c(c3cc(F)ccc31)CSc1cc(C(F)(F)F)ccc1-2	2800
Cn1c2c(c3cc(O)ccc31)CSc1ccccc1-2	110
Cn1c2c(c3cc(F)ccc31)CSc1ccccc1-2	3700
Cn1c2c(c3cc(O)ccc31)CSc1cc(Br)ccc1-2	2800
Cn1c2c(c3ccc(O)cc31)CCCc1ccccc1-2	920
CC(=O)n1c2c(c3cc(O)ccc31)CSc1ccccc1-2	1000
Cn1c2c(c3ccc(O)cc31)CCc1ccccc1-2	30
Oc1ccc2[nH]c3c(c2c1)CSc1ccccc1-3	4500
Cn1c2c(c3cc(O)ccc31)CCc1sccc1-2	580
Cn1c2c(c3ccc(O)cc31)CSc1ccccc1-2	130
CC(=O)Oc1ccc2c(c1)c1c(n2C)-c2ccccc2SC1	880
Cn1c2c(c3ccc(O)cc31)CCSc1ccccc1-2	5000

Second part, the compound after the results:

IC50 [nM]	Compound
630	Cn1c2c(c3cc(O)ccc31)CSc1cc(F)ccc1-2
3400	Cn1c2c(c3ccc(O)cc31)C(C)(C)Sc1cc(O)ccc1-2
2300	CCn1c2c(c3cc(O)ccc31)CSc1ccccc1-2
2100	Cn1c2c(c3cc(O)ccc31)CSc1cc(O)ccc1-2
1500	Cn1c2c(c3cc(Cl)ccc31)CSc1ccccc1-2

Each compound was assayed against T2, Androgen receptor (Rattus norvegicus) (UniProt P15207) (assay: Inhibition of rat AR-mediated reporter gene expression in COS7 cells at 3 uM). Conditions: COS-7.
T2 sequence (whole entry): T1 sequence (P15207 whole entry)
Format: cell-based

inhibition [%]	Compound
29	Cn1c2c(c3ccc(O)cc31)CCc1ncccc1-2
42	Cn1c2c(c3cc(O)ccc31)CCC1=CC(=O)CCC12C (configuration not stated)
33	Cn1c2c(c3cc(O)ccc31)CCc1nccnc1-2

Each compound was assayed against T2, Androgen receptor (Rattus norvegicus) (assay: Inhibition of rat AR-mediated reporter gene expression in COS7 cells). Conditions: COS-7.

Compound	Activity
CN1Cc2c(n(C)c3cc(O)ccc23)-c2ccccc21	inactive
CN1c2ccc(O)cc2C(=O)C2CCc3ccccc3C21 (configuration not stated)	inactive
Cn1c2c(c3cc(C#N)ccc31)CSc1ccccc1-2	inactive
Cn1c2c(c3ccccc31)CSc1ccccc1-2	inactive
COc1ccc2c(c1)c1c(n2C)-c2ccccc2SC1	inactive
Oc1ccc2nc3c(c(O)c2c1)CCc1ccccc1-3	inactive

Results, then the compound that gave them:

Activity	Compound
inactive	Cn1c2c(c3cc(O)ccc31)C[S+]([O-])c1ccccc1-2 (configuration not stated)
inactive	Cn1c2c(c3cc(O)ccc31)CS(=O)(=O)c1ccccc1-2
inactive	Cc1ccc2c(c1)c1c(n2C)-c2ccccc2SC1
inactive	Cn1c2c(c3ccc(O)cc31)SCc1ccccc1-2
inactive	Cn1c2c(c3cc(Br)ccc31)CSc1ccccc1-2
inactive	Cn1c2c(c3ccc(O)cc31)CCC1=CC(=O)CCC12C (configuration not stated)
inactive	CN1C(=O)CCC2(C)c3c(c4cc(O)ccc4n3C)CCC12 (configuration not stated)
inactive	CN(C)CCn1c2c(c3cc(O)ccc31)CSc1ccccc1-2

These compounds were tested against T2, Androgen receptor (Rattus norvegicus) (assay: Inhibition of rat AR-mediated reporter gene expression in COS7 cells at 10 uM). Conditions: COS-7.
Format: cell-based

inhibition [%]	Compound
48	Cn1c2c(c3cc(F)ccc31)CSc1cc(F)ccc1-2
